Measured values published in US12043599B2, “Herbicidal compounds” (SYNGENTA PARTICIPATIONS AG, priority 2018, dated 2024).

Key:
Format in all cases: in vivo
Details in all cases: 250 g/h, evaluated after 13 days
Setaria faberi (SETFA) [1] = test: Pre-emergence herbicidal glasshouse test, percentage damage
Procedure, shortened: (§1)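 Pots of the weeds sprayed either 1 day after sowing (pre-emergence) or after 8 days' growth (post-emergence), at 250 g/h in acetone/water with 0.5% Tween 20. Grown in a glasshouse at 24/16° C. day/night with 14 h light and 65% humidity. Damage scored 13 days later on a 1–5 scale (5=80-100%, 1=0-19%).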

[2] = system: Alopecurus myosuroides (ALOMY); test: as above
Procedure, shortened: as §1

Lolium perenne (LOLPE) [3] = test: as above
Procedure, shortened: as §1

[4] = system: Echinochloa crus-galli (ECHCG); test: as above
Procedure, shortened: as §1

Avena fatua (AVEFA) [5] = test: as above
Procedure, shortened: as §1

Setaria faberi (SETFA) [6] = test: Post-emergence herbicidal glasshouse test, percentage damage
Procedure, shortened: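 Wheat, barley and Setaria faberi were sprayed post-emergence after 8 days' growth (24/16 °C, 14 h light, 65% humidity) with compound in acetone/water (50:50) containing 0.5% Tween 20, at the indicated rates. On wheat, compounds were also applied with cloquintocet-mexyl at 50 g/ha. Damage was scored after 13 days on a five-point scale (5=80-100% to 1=0-19%).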

[7] = system: Alopecurus myosuroides (ALOMY); test: as above
Procedure, shortened: as §1

Lolium perenne (LOLPE) [8] = test: as above
Procedure, shortened: as §1

[9] = system: Echinochloa crus-galli (ECHCG); test: as above
Procedure, shortened: as §1

Avena fatua (AVEFA) [10] = test: as above
Procedure, shortened: as §1

| Structure (SMILES) | SETFA PRE percentage damage (five point scale) (Setaria faberi (SETFA) [1]) | ALOMY PRE percentage damage (five point scale) [2] | LOLPE PRE percentage damage (five point scale) (Lolium perenne (LOLPE) [3]) | ECHCG PRE percentage damage (five point scale) [4] | AVEFA PRE percentage damage (five point scale) (Avena fatua (AVEFA) [5]) | SETFA POST percentage damage (five point scale) (Setaria faberi (SETFA) [6]) | ALOMY POST percentage damage (five point scale) [7] | LOLPE POST percentage damage (five point scale) (Lolium perenne (LOLPE) [8]) | ECHCG POST percentage damage (five point scale) [9] | AVEFA POST percentage damage (five point scale) (Avena fatua (AVEFA) [10]) |
| --- | --- | --- | --- | --- | --- | --- | --- | --- | --- | --- |
| CC#Cc1cc(C)c(C2C(=O)CC3(CCN([S+]([O-])C(C)(C)C)CC3)CC2=O)c(C)c1 (centres unmarked) [Compound A85] | 5 (5=80-100%) | 5 (5=80-100%) | 5 (5=80-100%) | 5 (5=80-100%) | 3 (3=40-59%) | 4 (4=60-79%) | 5 (5=80-100%) | 5 (5=80-100%) | 5 (5=80-100%) | 5 (5=80-100%) |
| CC#Cc1cc(C)c(C2C(=O)CC3(CCN([S+]([O-])C(F)F)CC3)CC2=O)c(C)c1 (centres unmarked) [Compound A81] | 5 (5=80-100%) | 5 (5=80-100%) | 5 (5=80-100%) | 5 (5=80-100%) | 5 (5=80-100%) | 5 (5=80-100%) | 5 (5=80-100%) | 5 (5=80-100%) | 5 (5=80-100%) | 5 (5=80-100%) |
| CC#Cc1cc(C)c(C2C(=O)CC3(CCN(C(=O)c4ccc(C(F)(F)F)cn4)CC3)CC2=O)c(C)c1 [Compound A89] | 5 (5=80-100%) | 5 (5=80-100%) | 5 (5=80-100%) | 5 (5=80-100%) | 5 (5=80-100%) | 5 (5=80-100%) | 5 (5=80-100%) | 5 (5=80-100%) | 5 (5=80-100%) | 5 (5=80-100%) |
| CC#Cc1cc(C)c(C2=C(OC(=O)c3ccccc3F)CC3(CCN(C(=O)c4ccccc4F)CC3)CC2=O)c(C)c1 [Compound P20] | 5 (5=80-100%) | 5 (5=80-100%) | 5 (5=80-100%) | 5 (5=80-100%) | 3 (3=40-59%) | 5 (5=80-100%) | 5 (5=80-100%) | 5 (5=80-100%) | 5 (5=80-100%) | 5 (5=80-100%) |
| CC#Cc1cc(C)c(C2C(=O)CC3(CCN(C(=O)c4ccccn4)CC3)CC2=O)c(OC)c1 [Compound A74] | 5 (5=80-100%) | 5 (5=80-100%) | 5 (5=80-100%) | 5 (5=80-100%) | 5 (5=80-100%) | 5 (5=80-100%) | 5 (5=80-100%) | 5 (5=80-100%) | 5 (5=80-100%) | 5 (5=80-100%) |
| CC#Cc1cc(C)c(C2=C(OC(=O)C(C)OC)CC3(CCN(C(=O)C(C)OC)CC3)CC2=O)c(C)c1 (centres unmarked) [Compound P6] | 5 (5=80-100%) | 5 (5=80-100%) | 5 (5=80-100%) | 5 (5=80-100%) | 5 (5=80-100%) | 5 (5=80-100%) | 5 (5=80-100%) | 5 (5=80-100%) | 5 (5=80-100%) | 5 (5=80-100%) |
| CC#Cc1cc(C)c(C2C(=O)CC3(CCN(C(=O)C4CC4)CC3)CC2=O)c(C)c1 [Compound A8, 3-(cyclopropanecarbonyl)-9-(2,6-dimethyl-4-prop-1-ynyl-phenyl)-3-azaspiro[5.5]undecane-8,10-dione] | 5 (5=80-100%) | 5 (5=80-100%) | 5 (5=80-100%) | 5 (5=80-100%) | 5 (5=80-100%) | 5 (5=80-100%) | 5 (5=80-100%) | 5 (5=80-100%) | 5 (5=80-100%) | 5 (5=80-100%) |
| CC#Cc1cc(C)c(C2C(=O)CC3(CCN(C(=O)CCc4ccccn4)CC3)CC2=O)c(C)c1 [Compound A184] | 5 (5=80-100%) | 1 (1=0-19%) | 5 (5=80-100%) | 4 (4=60-79%) | 2 (2=20-39%) | 5 (5=80-100%) | 4 (4=60-79%) | 5 (5=80-100%) | 5 (5=80-100%) | 5 (5=80-100%) |
| CC#Cc1cc(C)c(C2C(=O)CC3(CCN(S(=O)(=O)C4CC4)CC3)CC2=O)c(C)c1 [Compound A82] | 5 (5=80-100%) | 5 (5=80-100%) | 5 (5=80-100%) | 5 (5=80-100%) | 5 (5=80-100%) | 5 (5=80-100%) | 5 (5=80-100%) | 5 (5=80-100%) | 5 (5=80-100%) | 5 (5=80-100%) |
| CC#Cc1cc(C)c(C2=C(OC(=O)OC)CC3(CCN(C(=O)NC(=O)C(C)(C)C)CC3)CC2=O)c(C)c1 [Compound P10] | 5 (5=80-100%) | 5 (5=80-100%) | 5 (5=80-100%) | 5 (5=80-100%) | 5 (5=80-100%) | 5 (5=80-100%) | 5 (5=80-100%) | 5 (5=80-100%) | 5 (5=80-100%) | 5 (5=80-100%) |
| CC#Cc1cc(C)c(C2C(=O)CC3(CCN(C(=O)c4cnccc4C#N)CC3)CC2=O)c(C)c1 [Compound A192] | 5 (5=80-100%) | 3 (3=40-59%) | 5 (5=80-100%) | 5 (5=80-100%) | 3 (3=40-59%) | 5 (5=80-100%) | 5 (5=80-100%) | 5 (5=80-100%) | 5 (5=80-100%) | 5 (5=80-100%) |
